# Molecular target: T1, human GnRH receptor (Homo sapiens, UniProt P30968)
# T1 construct: expressed in transfected cells
# T1 sequence (P30968 1-328): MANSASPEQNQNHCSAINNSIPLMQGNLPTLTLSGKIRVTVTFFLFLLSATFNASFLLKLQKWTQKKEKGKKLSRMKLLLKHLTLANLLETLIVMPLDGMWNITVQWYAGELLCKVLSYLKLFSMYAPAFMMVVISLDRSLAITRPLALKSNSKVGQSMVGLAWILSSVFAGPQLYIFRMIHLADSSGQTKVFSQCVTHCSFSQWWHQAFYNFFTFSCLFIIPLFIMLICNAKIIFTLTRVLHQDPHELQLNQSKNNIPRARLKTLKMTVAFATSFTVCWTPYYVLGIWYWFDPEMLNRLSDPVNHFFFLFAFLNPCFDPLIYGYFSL
# Experiment: IP-One functional assay for GnRHR (reported as hGnRHR Binding Ki)
# Type: cell-based
# Details: incubation time 60 min; FlpIn T-Rex 293 cells expressing human GnRH receptor; read-out: hGnRHR Binding Ki 60 min
# Source text: General overview: GnRHR is a Gq/11-coupled receptor that mediates the action of the GnRH hormone by activating the phosphatidylinositol-calcium second messenger system. Activation of the GnRHR induces the accumulation of inositol monophosphate, a stable metabolite of IP-3, that can be characterized as a measure of agonistic activity (increase in IP-One) or antagonistic activity (blockade of IP-One accumulation) by compounds of the invention. One example of an intracellular IP-One assay used to characterize GnRHR antagonists is described below.
# 24 hours prior to the assay, 30,000 FlpIn T-Rex 293 Cells (ThermoFisher #R78007) stably expressing the functional human GnRH receptor upon induction with tetracycline were plated in a 96-well tissue culture-treated plate in FlpIn T-Rex 293 Growth Medium [DMEM (Corning #10-013-CM) supplemented with 10% fetal bovine serum (Gemini Bio-Products #900-208), 100 U/mL penicillin; 100 μg/mL streptomycin; 2 mM L-glutamine (Gemini Bio-Products #400-110)] and 50 ng/mL tetracycline hydrocholoride (Sigma, T7660). Cells were cultured at 37° C., 5% CO2 and 95% humidity. On the day of the assay, the growth media was discarded and the cells were treated with 50 μL of a dose response curve of GnRH (Bachem #4033013) in the presence of various concentrations of fixed compound in assay buffer [10 mM HEPES (Biopioneer Cat #C0113) pH 7.4, 1 mM CaCl2) (Fisher Scientific BP510-100), 0.5 mM MgCl2 (Sigma M8266-100G), 4.2 mM KCl (Fisher Scientific P330-500), 146 mM NaCl (Spectrum Chemical #SO155), 5.5 mM Glucose (Sigma G7528), 50 mM LiCl (Fisher Scientific L121-100), 0.1% bovine serum albumin (Fisher Scientific Cat #BP1600)] and incubated for 1 hour at 37° C. (the final concentrations of GnRH ranged from 0-250 nM and the final concentrations of the compound ranged from 0-10,000 nM). 50 μL of lysis buffer (HRTF IP-one kit, Cisbio) was added on top of the treatment to lyse the cells. The lysate was transferred to 384-well plates and IP-one detection and visualization antibodies were added and incubated for 1-24 hours at room temperature. The time-resolved fluorescent signal was read with a Tecan M1000Pro (Tecan) multiplate reader. The intracellular IP-one concentrations were calculated by regression to a standard curve and were plotted vs. the concentration of the GnRH agonists in the presence of various concentrations of antagonist and the Ks of the compounds were calculated using standard curve-fitting methods. All data manipulations were performed using GraphPad Prism v8 (GraphPad, San Diego, CA).
# For some analogs, the incubation time was 2 h or 4 h, as noted in Table A.
row,Ki [µM],SMILES
1,< 0.01,"CN(C(=O)c1ccc(Cl)c(-c2cnc(C(F)(F)F)cc2C#N)c1)c1ccccc1OCCOCCOCCOCCOCCOCCOCCOCCOCCNC(=O)CN1CCN(CC(=O)O)CCN(CC(=O)O)CCN(CC(=O)O)CC1 [Compound 3M-In, indium(III) 2,2′,2″-(10-(29-(2-(4-chloro-3-(4-cyano-6-(trifluoromethyl)pyridin-3-yl)-N-methylbenzamido)phenoxy)-2-oxo-6,9,12,15,18,21,24,27-octaoxa-3-azanonacosyl)-1,4,7,10-tetraazacyclododecane-1,4,7-triyl)triacetate]"
2,< 0.01,"CN(C(=O)c1ccc(Cl)c(-c2cnc(C(F)(F)F)cc2C#N)c1)c1ccccc1OCCC(=O)NCCOCCOCCOCCOCCOCCOCCOCCOCCNC(=O)CN1CCN(CC(=O)O)CCN(CC(=O)O)CCN(CC(=O)O)CC1 [Compound 2, 2,2′,2″-(10-(33-(2-(4-chloro-3-(4-cyano-6-(trifluoromethyl)pyridin-3-yl)-N-methylbenzamido)phenoxy)-2,31-dioxo-6,9,12,15,18,21,24,27-octaoxa-3,30-diazatritriacontyl)-1,4,7,10-tetraazacyclododecane-1,4,7-triyl)triacetic acid]"
3,< 0.01,"COc1ccccc1N(C)C(=O)c1cc(-c2cnc(C(F)(F)F)cc2C#N)c(Cl)cc1OCCOCCOCCOCCOCCOCCOCCOCCOCCNC(=O)CN1CCN(CC(=O)O)CCN(CC(=O)O)CCN(CC(=O)O)CC1 [Compound 5M-In, indium(III) 2,2′,2″-(10-(29-(5-chloro-4-(4-cyano-6-(trifluoromethyl)pyridin-3-yl)-2-((2-methoxyphenyl) (methyl)carbamoyl)phenoxy)-2-oxo-6,9,12,15,18,21,24,27-octaoxa-3-azanonacosyl)-1,4,7,10-tetraazacyclododecane-1,4,7-triyl)triacetate]"
4,< 0.01,"COc1ccccc1N(C)C(=O)c1cc(-c2cnc(C(F)(F)F)cc2C#N)c(Cl)cc1OCCCC(=O)NCCOCCOCCOCCOCCOCCOCCOCCOCCNC(=O)CN1CCN(CC(=O)O)CCN(CC(=O)O)CCN(CC(=O)O)CC1 [Compound 6M-In, indium(III) 2,2′,2″-(10-(34-(5-chloro-4-(4-cyano-6-(trifluoromethyl)pyridin-3-yl)-2-((2-methoxyphenyl)(methyl)carbamoyl)phenoxy)-2,31-dioxo-6,9,12,15,18,21,24,27-octaoxa-3,30-diazatetratriacontyl)-1,4,7,10-tetraazacyclododecane-1,4,7-triyl)triacetate]"
5,< 0.01,"Cc1cccc(OCCC(=O)NCCOCCOCCOCCOCCOCCOCCOCCOCCNC(=O)CN2CCN(CC(=O)O)CCN(CC(=O)O)CCN(CC(=O)O)CC2)c1N(C)C(=O)c1ccc(Cl)c(-c2cnc(C(F)(F)F)cc2C#N)c1 [Compound 8, 2,2′,2″-(10-(33-(2-(4-chloro-3-(4-cyano-6-(trifluoromethyl)pyridin-3-yl)-N-methylbenzamido)-3-methylphenoxy)-2,31-dioxo-6,9,12,15,18,21,24,27-octaoxa-3,30-diazatritriacontyl)-1,4,7,10-tetraazacyclododecane-1,4,7-triyl)triacetic acid]"

# Same assay, conditions: incubation time 2 h; FlpIn T-Rex 293 cells expressing human GnRH receptor; read-out: hGnRHR Binding Ki 2 h
row,Ki [µM],SMILES
1,< 0.01,"COc1nc(SCCC(=O)NCCN(C)CCNC(=O)CN2CCN(CC(=O)O)CCN(CC(=O)O)CCN(CC(=O)O)CC2)nc(OC)c1NC(=O)c1ccc(Oc2cc3c(cc2C)CCC3(C)C)o1 [Compound 17, 2,2′,2″-(10-(2-((2-((2-(3-((4,6-dimethoxy-5-(5-((3,3,6-trimethyl-2,3-dihydro-1H-inden-5-yl)oxy)furan-2-carboxamido)pyrimidin-2-yl)thio)propanamido)ethyl)(methyl)amino)ethyl)amino)-2-oxoethyl)-1,4,7,10-tetraazacyclododecane-1,4,7-triyl)triacetic acid]"
2,< 0.01,"COc1nc(OCCOCCOCCOCCOCCOCCOCCOCCOCCNC(=O)CN2CCN(CC(=O)O)CCN(CC(=O)O)CCN(CC(=O)O)CC2)nc(OC)c1NC(=O)c1ccc(Oc2cc3c(cc2C)CCC3(C)C)o1 [Compound 4, 2,2′,2″-(10-(29-((4,6-dimethoxy-5-(5-((3,3,6-trimethyl-2,3-dihydro-1H-inden-5-yl)oxy)furan-2-carboxamido)pyrimidin-2-yl)oxy)-2-oxo-6,9,12,15,18,21,24,27-octaoxa-3-azanonacosyl)-1,4,7,10-tetraazacyclododecane-1,4,7-triyl)triacetic acid]"
3,< 0.01,"COc1nc(SCCC(=O)NCCN(C)CCNC(=O)[C@H](N)CCCNC(=O)CN2CCN(CC(=O)O)CCN(CC(=O)O)CCN(CC(=O)O)CC2)nc(OC)c1NC(=O)c1ccc(Oc2cc3c(cc2C)CCC3(C)C)o1 [Compound 19, (R)-2,2′,2″-(10-(7-amino-18-((4,6-dimethoxy-5-(5-((3,3,6-trimethyl-2,3-dihydro-1H-inden-5-yl)oxy)furan-2-carboxamido)pyrimidin-2-yl)thio)-12-methyl-2,8,16-trioxo-3,9,12,15-tetraazaoctadecyl)-1,4,7,10-tetraazacyclododecane-1,4,7-triyl)triacetic acid]"
4,< 0.01,"CC1(C)CCN(S(=O)(=O)c2cc(-c3cnc(C(F)(F)F)cc3C#N)c(Cl)cc2OCCOCCOCCOCCOCCOCCOCCOCCOCCNC(=O)CN2CCN(CC(=O)O)CCN(CC(=O)O)CCN(CC(=O)O)CC2)c2ccccc21 [Compound 7, 2,2′,2″-(10-(29-(5-chloro-4-(4-cyano-6-(trifluoromethyl)pyridin-3-yl)-2-((4,4-dimethyl-3,4-dihydroquinolin-1(2H)-yl)sulfonyl)phenoxy)-2-oxo-6,9,12,15,18,21,24,27-octaoxa-3-azanonacosyl)-1,4,7,10-tetraazacyclododecane-1,4,7-triyl)triacetic acid]"
5,< 0.01,"COc1nc(SCCC(=O)NCCC[C@@H](NC(=O)CN2CCN(CC(=O)O)CCN(CC(=O)O)CCN(CC(=O)O)CC2)C(=O)O)nc(OC)c1NC(=O)c1ccc(Oc2cc3c(cc2C)CCC3(C)C)o1 [Compound 16, (R)-2,2′,2″-(10-(2-((1-carboxy-4-(3-((4,6-dimethoxy-5-(5-((3,3,6-trimethyl-2,3-dihydro-1H-inden-5-yl)oxy)furan-2-carboxamido)pyrimidin-2-yl)thio)propanamido)butyl)amino)-2-oxoethyl)-1,4,7,10-tetraazacyclododecane-1,4,7-triyl)triacetic acid]"

# — patent US20260097139A1, “GONADOTROPIN-RELEASING HORMONE RECEPTOR (GnRHR) TARGETED THERAPEUTICS AND USES THEREOF” (Radionetics Oncology, Inc., priority 2022, published 2026)
